The values below come from paper PMC9540480 (Clinical Pharmacology and Therapeutics, 2022).

SMILES strings stand for the structures. Converted amounts (≈) assume the structure as drawn.

Data set [1] is described as follows: Population PK model of oral enpatoran, phase I healthy participant study. As to conditions: interindividual variability, PopPK model. The format is in vivo, human.
The test system of data set [2] is ex vivo-stimulated IL-6 secretion (TLR7/8). The format is in vivo, human.
The subject of data set [3] is ex vivo-stimulated IFN-α secretion (TLR7/8). The format is in vivo, human.
Data set [4] deals with BXSB-Yaa mouse model of lupus. As to conditions: cited from earlier work.
For data set [5], the system named is IFN-α-accelerated NZB/W mouse model of lupus. As to conditions: cited from earlier work.
Another data set relates to IL-6 secretion (TLR7/8). Conditions: mice, mouse models of lupus; cited from earlier work.
For data set [6] the following is noted: cited from earlier work.
A further data set concerns Caco-2. Conditions: cited from earlier work.
The conditions of data set [7]: cited from earlier work. The source holds these as a separate data set.
The test system of another data set is aldehyde oxidase enzyme. As to conditions: shown in vitro; cited from earlier work.
For data set [8] the following is noted: phase I study in healthy participants; cited from earlier work.

As to `N#Cc1ccc(N2C[C@H](N)C[C@H](C(F)(F)F)C2)c2cccnc12` [enpatoran, Enpatoran], the “IIV CL/F” value in data set [1] is recorded as 27.5 %CV. The IC90 (usually the point of the concentration-response curve where the effect stands at 90%) in data set [2] (Homo sapiens) was determined as 0.0155 µg/mL (≈ 0.0484 µM); in data set [3] (Homo sapiens), 0.0221 µg/mL (≈ 0.069 µM). In addition, the “inhibition of cytokine release with increasing enpatoran concentrations” value amounted to 100% in data set [2] (IL-6, complete inhibition) and 100% in [3] (IFN-α, complete inhibition). In addition, the Hill factor in data set [2] (ex vivo-stimulated IL-6) and in data set [3] (ex vivo-stimulated IFN-α) was over 1.5 in each case. The IC60 worked out at 0.00559 µg/mL (≈ 0.0175 µM) in data set [2] (ex vivo-stimulated IL-6, derived from IC50 and Hill factor); 0.00843 µg/mL (≈ 0.0263 µM) in data set [3] (ex vivo-stimulated IFN-α, derived from IC50 and Hill factor). The “doses suppressing disease development” value in [4] and in data set [5] was at least 1 mg/kg each time. Further, the “lowest (minimally) efficacious dose” value in the data set with IL-6 secretion (TLR7/8) was 1 mg/kg. Moreover, the logP – broadly, a log measure of how a compound divides between an organic and an aqueous phase – in data set [6] is 2. Further, the Caco-2 permeability in the data set with Caco-2 is 26 ×10⁻⁶ cm/s. In addition, the “F (fraction of the oral dose systemically available)” value in data set [7] is given as over 85%. Also, the metabolic route entry in the data set with aldehyde oxidase enzyme is given as “metabolism via the aldehyde oxidase enzyme”. In addition, the tolerability result in data set [8] was “well‐tolerated”.
